Assay results reported in patent US6127340A, “Serine protease inhibitors” (Trigen Limited, priority 1995, dated 2000).
Like-named read-outs stand apart in the source and are kept apart here.

How the values were obtained:
human α-thrombin = human α-thrombin (Homo sapiens, UniProt P00734); assay: Determination of Ki: inhibition of human α-thrombin catalysed hydrolysis of chromogenic substrate S-2238; type: biochemical
Protocol: The inhibition of human α-thrombin was determined by the inhibition of the enzyme catalysed hydrolysis of three different concentrations of the chromogenic substrate S-2238.
200 μl of sample or buffer and 50 μl of S-2238 were incubated at 37° C. for 1 min and 50 μl of human α-thrombin (0.25 NIH μ/ml) was added. The initial rate of inhibited and uninhibited reactions were recorded at […]. The increase in optical density was plotted according to the method of Lineweaver and Burke. The Km and apparent Km were determined and Ki was calculated using the relationship. [formula]
The buffer used contained 0.1M sodium phosphate, 0.2M NaCl, 0.5% PEG and 0.02% sodium azide, adjusted to pH 7.5 with orthophosphoric acid.
The samples consist of the compound dissolved in DMSO.
The reader is referred to Dixon, M and Webb, E. C., "Enzymes", third edition, 1979, Academic Press, the disclosure of which is incorporated herein by reference, for a further description of the measurement of Ki.

elastase = assay: Inhibition constant (Ki) against elastase; type: biochemical
[1] = Table 4, 37° C., substrate S-2238
[2] = Table 5, Ki against elastase, 37° C., read-out: Ela
[3] = Table 6, comparative with prior art compounds, unit inferred, read-out: Ki(elastase)
[4] = Table 6, comparative with prior art compounds, unit inferred

Ki (human α-thrombin; [1]) [nM] | Compound | also measured
6200 | CCOP(=O)(OCC)C(OC(=O)C1CCCN1C(=O)C(NC(=O)OCc1ccccc1)C(c1ccccc1)c1ccccc1)c1ccc([N+](=O)[O-])cc1 (racemic) [Example 239, Cbz-DL-Dpa-Pro-CO2 pNO2Phg^P (OEt)2] | 
16000 | CCOP(=O)(OCC)C(OC(=O)[C@@H]1CCCN1C(=O)C(NC(=O)OCc1ccccc1)C(c1ccccc1)c1ccccc1)c1ccccc1 (mixture of isomers) [Example 264, Cbz-DL-Dpa-Pro.psi.(CO2)Phg^P (OEt)2] | 
18200 | CC(C)C(OC(=O)C1CCCN1C(=O)C(NC(=O)OCc1ccccc1)C(c1ccccc1)c1ccccc1)B1OC2CC3CC(C3(C)C)C2(C)O1 [Example 87, Benzyloxycarbonyl-D,L-diphenylalanylprolyl-.psi.(CO2)-borovaline pinanediol ester] | Ki (elastase; [2]): 55000 nM
247 | CCC(OC(=O)C1CCCN1C(=O)C(NC(=O)OCc1ccccc1)C(c1ccccc1)c1ccccc1)B1OC2CC3CC(C3(C)C)C2(C)O1 [Example 90, Cbz-D,L-Dpa-Pro-.psi.(CO2)-1-propyl-1-boronate pinanediol] | Ki (elastase; [2]): 4500 nM
39.2 | CC1(C)C2CC3OB(C(Cc4ccccc4)OC(=O)C4CCCN4C(=O)[C@H](NC(=O)OCc4ccccc4)C(c4ccccc4)c4ccccc4)OC3(C)C1C2 (stereo partly drawn) [Example 91, Cbz-D-Dpa-Pro-.psi.(CO2)-boroPhe pinanediol] | 
88 | CC1(C)C2CC3OB(C(OC(=O)C4CCCN4C(=O)[C@@H](Cc4ccccc4)NC(=O)OCc4ccccc4)c4ccccc4)OC3(C)C1C2 (stereo partly drawn) [Example 100, Cbz-D-Phe-Pro-.psi.(CO2)-boroPgl pinanediol] | 
131 | CC1(C)C2CC3OB(C(OC(=O)C4CCCN4C(=O)C(NC(=O)OCc4ccccc4)C(c4ccccc4)c4ccccc4)c4ccccc4)OC3(C)C1C2 [Example 101, Cbz-D,L-Dpa-Pro-.psi.(CO2)-BoroPgl pinanediol] | 
 | CC(C)C(NC(=O)C1CCCN1C(=O)C(NC(=O)OCc1ccccc1)C(c1ccccc1)c1ccccc1)B1OC(C)(C)C(C)(C)O1 [Z-D-Dpa-Pro-BoroVal-OPin, reference compound] | Ki (elastase; [3]): > 70800 nM
39 | Cbz-D,L-Dpa-Pro-(CO2)boroPhe-OPin [Example 89] | 
13700 | Cbz-D-Dpa-Pro-.psi.(CO2)-GlyP(-)OPin [Example 177] | 
292 | Cbz-D-Dpa-Pro-.psi.(COCH2)BoroHpg(-)OPin [Example 270] | 
148 | Cbz-D-Phe-Pro-.psi.(CH2 O)-BoroPhe-OPin [Example 102] | 
129 | Cbz-D-Phe-Pro-.psi.(CO2)-BoroPhe-OPin [Example 88] | 
269 | Cbz-D-Phe-Pro-.psi.(CO2)-boroethylglycine pinanediol [Example 85] | Ki (elastase; [2]): 87 nM
435 | Z-D,L-Dpa-(CO2)BoroMpgOPin [Example 109] | 
 | Z-D,L-Dpa-Pro-BoroPhe-OPin [reference compound] | Ki (human α-thrombin; [4]): 82 nM
283 | Z-D-Dpa-Pro(CO2)-L-BoroMpgOPin [Example 116] | 
2390 | Z-D-Dpa-Pro-(CH2 O)-L-BoroMpg-OPin [Example 173] | 
 | Z-D-Phe-ProBoroEtgOPin [reference compound] | Ki (human α-thrombin; [4]): 1000 nM; Ki (elastase; [3]): 561 nM
